Results from paper PMC7462607 (eLife, 2020).
Where “and” joins values, the source holds several entries; their conditions need not be identical. Equal values may be shown once.

Experiments:
[1] = test system: BRCA1, BRCA2, ATR, ERCC4 mRNA; assay: RT-qPCR of BRCA1, BRCA2, ATR and ERCC4 mRNAs; format: cell-based, Homo sapiens
Experimental: Total RNA was extracted from HQ461-treated A549 cells using TRNzol (Tiangen, Beijing, China). Reverse transcription of mRNA into cDNA was performed using the 5X All-In-One RT mastermix kit with AccuRT genomic DNA removal kit (Abm, Richmond, Canada), and qPCR was performed using TB Green Premix Ex Taq (Tli RNaseH Plus) (Takara, Otsu, Japan) with the CFX96 Real-Time PCR Detection System (Bio-Rad, Hercules, USA). GAPDH was used for normalization. Primer sequences are as follows: GAPDH-forward: 5’-[…]-3’; GAPDH-reverse: 5’-[…]-3’; BRCA1-forward: 5’-[…]-3’; BRCA1-reverse: 5’-[…]-3’; BRCA2-forward: 5’-[…]-3’; BRCA2-reverse: 5’-[…]-3’; ATR-forward: 5’-[…]-3’; ATR-reverse: 5’-[…]-3’; ERCC4-forward: 5’-[…]-3’; ERCC4- reverse: 5’-[…]-3’. Each experiment was performed with three technical replicates.

[2] = molecular target: T1, FLAG-Avi-DDB1 and His-CDK12KD G731R/His-CCNKΔC (Homo sapiens, UniProt Q9NYV4, G731R); assay: AlphaScreen assay, G731R; format: binding; details: for AlphaScreen: G731R, raw signal
T1 construct: Human CDK12KD (residues 715–1052); made in house; host or cells: Sf9 or High Five (CDK12KD/CCNKΔC, co-infected with yeast CAK1); 293F with BirA (FLAG-Avi-DDB1)
T1 sequence (Q9NYV4 715-1052 G731R limits assumed): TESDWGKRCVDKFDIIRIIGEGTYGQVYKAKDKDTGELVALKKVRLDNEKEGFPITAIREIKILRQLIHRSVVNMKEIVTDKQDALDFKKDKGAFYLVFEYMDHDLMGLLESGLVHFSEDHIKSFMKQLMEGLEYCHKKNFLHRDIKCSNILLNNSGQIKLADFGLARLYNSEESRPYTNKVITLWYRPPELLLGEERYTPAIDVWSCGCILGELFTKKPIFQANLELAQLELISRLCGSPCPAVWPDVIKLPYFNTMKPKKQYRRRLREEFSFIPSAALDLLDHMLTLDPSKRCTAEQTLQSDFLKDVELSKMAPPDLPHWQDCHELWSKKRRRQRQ
T1 sequence (O75909 11-267 partner limits assumed): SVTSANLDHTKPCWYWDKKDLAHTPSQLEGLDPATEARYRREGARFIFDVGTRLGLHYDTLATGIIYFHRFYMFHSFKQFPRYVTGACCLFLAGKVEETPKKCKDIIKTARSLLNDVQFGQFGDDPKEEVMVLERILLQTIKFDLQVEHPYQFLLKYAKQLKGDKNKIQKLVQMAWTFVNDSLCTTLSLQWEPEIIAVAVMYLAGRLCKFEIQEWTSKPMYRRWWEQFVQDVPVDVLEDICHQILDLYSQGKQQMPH
Experimental: (§1) Biotinylated FLAG-Avi-DDB1 (3 µM) and 6xHis-CDK12KD/6xHis-CCNKΔC (WT or G731E/R mutants) (3 µM) were mixed in an assay buffer (50 mM HEPES, pH7.5, 300 mM NaCl, 0.5 mM TCEP, 0.1% NP-40, 0.1% BSA) and a serial dilution of HQ461.The protein-compound mix was transferred to 384-well plates (Corning, Corning, USA); 15 μL per well. After a 1 hr room temperature incubation, 10 µL of nickel chelate (Ni-NTA) acceptor beads (PerkinElmer, Waltham, USA, Waltham, USA, 6760619C) (1:100 diluted with assay buffer) was added per well. After incubation in the dark for 1 hr at room temperature, 10 μL of streptavidin donor beads (PerkinElmer, Waltham, USA, 6760619C) (1:100 diluted in assay buffer) was added per well. After another 1 hr incubation, AlphaScreen signal was measured on the EnVision multimode plate reader (PerkinElmer, Waltham, USA). For THZ531 competition, FLAG-Avi-DDB1, 6xHis-CDK12KD/6xHis-CCNKΔC mix was preincubated with 5 μM of THZ531 for 30 min on ice followed by the procedures described above.

FLAG-DDB1/CDK12KD/CCNKΔC = molecular target: T2, FLAG-DDB1/CDK12KD/CCNKΔC (Homo sapiens, UniProt Q9NYV4); assay: FLAG-DDB1:CDK12KD/CCNKΔC pull down assay; format: binding
T2 construct: Human CDK12KD (residues 715–1052); 6xHis (PreScission site) (N, cleaved yes); made in house; host or cells: Sf9 or High Five (CDK12KD/CCNKΔC, co-infected with yeast CAK1); 293F (FLAG-Avi-DDB1)
T2 sequence (Q9NYV4 715-1052, stated change not applied): as the sequence (Q9NYV4 715-1052 G731R limits assumed) above, with R17G counted along it
T2 sequence (O75909 11-267 partner limits assumed): as the sequence (O75909 11-267 partner limits assumed) above
T2 sequence (Q16531 whole entry partner, the tested form may be a part): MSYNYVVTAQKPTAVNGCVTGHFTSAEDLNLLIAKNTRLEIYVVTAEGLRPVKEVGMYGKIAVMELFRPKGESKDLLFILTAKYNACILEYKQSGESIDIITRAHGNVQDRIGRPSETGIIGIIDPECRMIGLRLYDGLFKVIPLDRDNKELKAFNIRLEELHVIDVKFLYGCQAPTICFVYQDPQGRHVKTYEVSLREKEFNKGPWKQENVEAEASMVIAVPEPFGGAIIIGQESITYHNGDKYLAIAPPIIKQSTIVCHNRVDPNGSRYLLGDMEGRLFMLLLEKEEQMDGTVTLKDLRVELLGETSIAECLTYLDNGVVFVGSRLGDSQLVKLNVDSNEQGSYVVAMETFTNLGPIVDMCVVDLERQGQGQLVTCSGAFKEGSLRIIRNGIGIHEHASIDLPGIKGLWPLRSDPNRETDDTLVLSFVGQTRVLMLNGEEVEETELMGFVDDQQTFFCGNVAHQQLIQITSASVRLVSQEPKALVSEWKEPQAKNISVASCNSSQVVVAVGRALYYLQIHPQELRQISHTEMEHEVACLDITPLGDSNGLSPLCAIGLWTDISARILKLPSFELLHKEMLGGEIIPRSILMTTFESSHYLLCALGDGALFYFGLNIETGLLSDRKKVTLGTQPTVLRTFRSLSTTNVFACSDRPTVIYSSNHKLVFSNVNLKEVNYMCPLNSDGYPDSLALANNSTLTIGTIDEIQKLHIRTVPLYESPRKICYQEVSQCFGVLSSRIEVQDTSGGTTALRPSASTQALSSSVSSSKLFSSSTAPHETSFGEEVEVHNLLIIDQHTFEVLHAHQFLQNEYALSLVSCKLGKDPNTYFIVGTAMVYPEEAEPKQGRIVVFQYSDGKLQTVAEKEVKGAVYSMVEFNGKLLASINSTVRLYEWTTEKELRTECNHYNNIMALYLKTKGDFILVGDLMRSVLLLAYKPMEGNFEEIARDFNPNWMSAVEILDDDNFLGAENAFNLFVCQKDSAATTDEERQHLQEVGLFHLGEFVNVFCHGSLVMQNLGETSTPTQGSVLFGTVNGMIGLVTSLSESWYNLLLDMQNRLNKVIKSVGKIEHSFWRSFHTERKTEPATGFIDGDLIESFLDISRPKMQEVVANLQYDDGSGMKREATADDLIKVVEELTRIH
Experimental: FLAG-Avi-DDB1 (18.2 µg) was mixed with CDK12KD/CCNKΔC (10 µg) at 1:1 molar ratio in 500 μL of pulldown assay buffer containing 50 mM HEPES, pH 7.5, 300 mM NaCl, 0.5 mM TCEP. The protein mix was then supplemented with DMSO or HQ461. After 30 min of incubation on ice, the protein-compound mix was incubated with anti-FLAG M2 affinity gel for another 30 min on a rotator at 4 °C. Protein-bound beads were washed three times with the pulldown assay buffer and bound proteins were eluted with 0.2 mg/mL FLAG peptide. Eluted proteins were analyzed by SDS-PAGE followed by coomassie blue staining.

[3] = molecular target: T3, FLAG-Avi-DDB1 and His-CDK12KD/His-CCNKΔC (WT) (Homo sapiens, UniProt Q9NYV4); assay: AlphaScreen assay, WT; format: binding; details: for AlphaScreen: raw signal
T3 construct: Human CDK12KD (residues 715–1052); made in house; host or cells: Sf9 or High Five (CDK12KD/CCNKΔC, co-infected with yeast CAK1); 293F with BirA (FLAG-Avi-DDB1)
T3 sequence (Q9NYV4 715-1052 limits assumed, stated change not applied): as the sequence (Q9NYV4 715-1052 G731R limits assumed) above, with R17G counted along it
T3 sequence (O75909 11-267 partner limits assumed): as the sequence (O75909 11-267 partner limits assumed) above
T3 sequence (Q16531 whole entry partner, the tested form may be a part): as the sequence (Q16531 whole entry partner, the tested form may be a part) above
Experimental: as §1

Cc1cccc(Nc2nc(CC(=O)Nc3ncc(C)s3)cs2)n1 [HQ461, 2-(2-((6-methylpyridin-2-yl)amino)thiazol-4-yl)-N-(5-methylthiazol-2-yl)acetamide]
inhibitory effect on the expression of DDR genes ([1]; A549 with CDK12 G731E or G731R mutation): abolished
mRNA levels of BRCA1, BRCA2, ATR and ERCC4 ([1]; parental A549, 10 µM HQ461 for 16 hr): reductions in the mRNA levels of all four tested DDR genes
AlphaScreen ([2]; HQ461 2.22e-6 M): 1045 and 1023 and 975
AlphaScreen ([2]; HQ461 6.67e-6 M): 1107 and 1087 and 1018
AlphaScreen ([2]; HQ461 2e-5 M): 1057 and 1369 and 1206
AlphaScreen ([2]; HQ461 2.47E-07 M): 1123 and 959 and 996
AlphaScreen ([2]; HQ461 2.74E-08 M): 1124 and 1117 and 796
AlphaScreen ([2]; HQ461 7.41E-07 M): 1008 and 1006 and 1085
AlphaScreen ([2]; HQ461 8.23E-08 M): 1162 and 1262 and 828
complex formation with DDB1, G731R mutant ([2]; even with 20 µM of HQ461): did not form a complex with DDB1
complex formation of DDB1 with CDK12KD/CCNKΔC (pulldown) (FLAG-DDB1/CDK12KD/CCNKΔC): near-stoichiometric complex
AlphaScreen ([3]; WT + 5 µM THZ531, HQ461 2.22e-6 M): 1078 and 1062 and 921
AlphaScreen ([3]; WT + 5 µM THZ531, HQ461 6.67e-6 M): 1168 and 926 and 865
AlphaScreen ([3]; WT + 5 µM THZ531, HQ461 2e-5 M): 1307 and 1119 and 970
AlphaScreen ([3]; WT + 5 µM THZ531, HQ461 2.47E-07 M): 1065 and 1007 and 926
AlphaScreen ([3]; WT + 5 µM THZ531, HQ461 2.74E-08 M): 1128 and 949 and 821
AlphaScreen ([3]; WT + 5 µM THZ531, HQ461 7.41E-07 M): 1120 and 993 and 799
AlphaScreen ([3]; WT + 5 µM THZ531, HQ461 8.23E-08 M): 1054 and 1033 and 906
AlphaScreen ([3]; WT, HQ461 2.22e-6 M): 11213 and 9188 and 8788
AlphaScreen ([3]; WT, HQ461 6.67e-6 M): 16665 and 12816 and 13014
AlphaScreen ([3]; WT, HQ461 2e-5 M): 20710 and 15836 and 15276
AlphaScreen ([3]; WT, HQ461 2.47E-07 M): 4781 and 3382 and 3265
AlphaScreen ([3]; WT, HQ461 2.74E-08 M): 2625 and 1724 and 1469
AlphaScreen ([3]; WT, HQ461 7.41E-07 M): 7377 and 5649 and 5718
AlphaScreen ([3]; WT, HQ461 8.23E-08 M): 2916 and 2037 and 1777
EC50 ([3]; WT, read-out: apparent EC50 of CDK12KD/CCNKΔC/DDB1 complex formation): 1.9 µM
